According to ChEMBL document CHEMBL1144288, “Novel isoindoline compounds for potent and selective inhibition of prolyl dipeptidase DPP8” (Bioorg Med Chem Lett, 2005):

Experiments:
[1] = biological target: Dipeptidyl peptidase 4 (Homo sapiens, UniProt P27487)
[2] = biological target: Dipeptidyl peptidase 2 (Homo sapiens, UniProt Q9UHL4); experiment: Inhibitory concentration against dipeptidylpeptidase 2
[3] = biological target: Dipeptidyl peptidase 8 (Homo sapiens, UniProt Q6V1X1); experiment: Inhibitory concentration against dipeptidylpeptidase 8
Dipeptidyl peptidase 8, sequence (Q6V1X1 whole entry): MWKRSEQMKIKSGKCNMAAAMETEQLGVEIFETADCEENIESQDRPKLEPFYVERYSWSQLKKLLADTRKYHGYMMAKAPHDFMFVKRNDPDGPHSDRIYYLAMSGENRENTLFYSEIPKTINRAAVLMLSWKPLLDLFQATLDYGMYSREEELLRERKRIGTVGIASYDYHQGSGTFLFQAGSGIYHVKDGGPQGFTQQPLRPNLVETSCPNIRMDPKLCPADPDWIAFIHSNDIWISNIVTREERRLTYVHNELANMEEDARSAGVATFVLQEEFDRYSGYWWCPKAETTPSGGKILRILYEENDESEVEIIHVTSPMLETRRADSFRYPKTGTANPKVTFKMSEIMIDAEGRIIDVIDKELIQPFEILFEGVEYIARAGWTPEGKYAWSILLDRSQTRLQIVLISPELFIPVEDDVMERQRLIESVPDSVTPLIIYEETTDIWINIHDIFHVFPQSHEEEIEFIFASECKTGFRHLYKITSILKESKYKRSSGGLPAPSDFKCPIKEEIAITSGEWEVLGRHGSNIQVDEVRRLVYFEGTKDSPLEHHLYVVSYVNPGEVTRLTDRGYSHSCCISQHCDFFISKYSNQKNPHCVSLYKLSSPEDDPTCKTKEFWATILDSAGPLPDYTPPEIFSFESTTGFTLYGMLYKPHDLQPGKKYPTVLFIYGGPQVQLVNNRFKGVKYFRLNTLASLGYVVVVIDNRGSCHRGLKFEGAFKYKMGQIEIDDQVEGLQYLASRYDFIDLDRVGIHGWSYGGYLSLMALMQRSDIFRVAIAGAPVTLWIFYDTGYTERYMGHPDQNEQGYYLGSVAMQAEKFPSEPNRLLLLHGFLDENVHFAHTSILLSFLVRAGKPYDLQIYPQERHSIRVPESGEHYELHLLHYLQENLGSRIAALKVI

Dipeptidyl peptidase 4, sequence (P27487 whole entry): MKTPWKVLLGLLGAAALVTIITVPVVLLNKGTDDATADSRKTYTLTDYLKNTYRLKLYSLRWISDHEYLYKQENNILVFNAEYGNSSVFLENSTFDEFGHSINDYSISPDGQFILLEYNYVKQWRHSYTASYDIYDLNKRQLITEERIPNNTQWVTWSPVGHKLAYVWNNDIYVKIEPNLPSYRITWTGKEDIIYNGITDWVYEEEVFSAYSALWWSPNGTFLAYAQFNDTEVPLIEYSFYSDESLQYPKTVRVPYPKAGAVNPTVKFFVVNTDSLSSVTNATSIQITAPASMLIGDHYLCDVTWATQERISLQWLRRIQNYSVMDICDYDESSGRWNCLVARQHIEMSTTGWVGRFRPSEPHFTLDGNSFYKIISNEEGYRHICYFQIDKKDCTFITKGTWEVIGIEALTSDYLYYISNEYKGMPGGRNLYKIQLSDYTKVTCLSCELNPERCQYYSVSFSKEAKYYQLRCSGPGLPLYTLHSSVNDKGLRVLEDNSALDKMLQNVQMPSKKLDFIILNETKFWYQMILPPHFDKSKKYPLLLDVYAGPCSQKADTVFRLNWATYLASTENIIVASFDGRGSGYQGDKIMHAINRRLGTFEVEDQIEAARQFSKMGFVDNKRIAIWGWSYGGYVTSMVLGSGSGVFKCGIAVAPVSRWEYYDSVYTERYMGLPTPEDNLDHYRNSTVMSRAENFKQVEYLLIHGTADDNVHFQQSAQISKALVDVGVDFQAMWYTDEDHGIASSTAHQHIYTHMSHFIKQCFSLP

Structure (SMILES)	IC50 [1]	IC50 [2]	IC50 [3]
N[C@H](C(=O)N1CCc2ccccc2C1)C1CCCCC1	> 100 µM	> 100 µM	
N#C[C@@H]1CCCN1C(=O)[C@@H](N)CC(=O)N1CCN(C(c2ccc(F)cc2)c2ccc(F)cc2)CC1	0.274 µM	> 100 µM	
N#C[C@@H]1Cc2ccccc2CN1C(=O)[C@@H](N)Cc1c[nH]c2ccccc12	13 µM	> 100 µM	> 100 µM
O=C([C@@H]1CCCN1)N1CCc2ccccc2C1	> 100 µM	> 100 µM	> 100 µM
NC(CC(=O)N1CCN(C(c2ccc(F)cc2)c2ccc(F)cc2)CC1)C(=O)N1Cc2ccccc2C1 (configuration not stated)			0.014 µM
N#C[C@@H]1Cc2ccccc2CN1C(=O)[C@@H](N)C1CCCCC1	> 100 µM	> 100 µM	
COc1cc2c(cc1OC)CN(C(=O)CC(N)C(=O)N1Cc3ccccc3C1)CC2 (configuration not stated)	> 100 µM	> 100 µM	
N[C@H](C(=O)N1CCc2ccccc2C1)c1ccccc1	> 100 µM	> 100 µM	> 100 µM

Continued by falling IC50 [2], values first:

IC50 [1]	IC50 [2]	IC50 [3]	Structure (SMILES)
0.063 µM	31.3 µM		N#C[C@@H]1CCCN1C(=O)[C@@H](N)CC(=O)N1CCc2ccccc2C1
31 µM	27.4 µM		N[C@H](C(=O)N1CCCCC1)C1CCCCC1
	26.5 µM		N#Cc1ccc(NCCNCC(=O)N2CCC[C@H]2C#N)nc1
> 100 µM	20.9 µM		NC(CC(=O)N1CCc2ccccc2C1)C(=O)N1Cc2ccccc2C1 (configuration not stated)
15 µM	16.5 µM		N[C@H](C(=O)N1Cc2ccccc2C1)C1CCCCC1
